System: MCF-7 breast cancer cells
Assay: Microarray gene expression analysis (Agilent whole human genome 4 x 44K; compound vs DMSO, LIMMA log2 fold change)
Format: cell-based
Details: Apoptosis genes

Cn1ncc2c(N3CCOCC3)nc(-c3cccc(O)c3)nc21 [ETP-45658]
ITGB3BP log2FC (Gene 23421): 0.773 | RYBP log2FC (Gene 23429): 0.520 | HEY2 log2FC (Gene 23493): -0.060 | SCRIB log2FC (Gene 23513): -0.165 | CLCF1 log2FC (Gene 23529): -0.993 | PRAME log2FC (Gene 23532): -0.401 | DDAH2 log2FC (Gene 23564): 0.126 | ZNF346 log2FC (Gene 23567): 0.167 | CASP14 log2FC (Gene 23581): -0.095 | NUP62 log2FC (Gene 23636): -0.576 | PPP1R15A log2FC (Gene 23645): 1.011 | AIPL1 log2FC (Gene 23746): -0.252 | FKBP8 log2FC (Gene 23770): -0.132 | BCL2L13 log2FC (Gene 23786): 0.179 | MTCH1 log2FC (Gene 23787): 0.077 | NGEF log2FC (Gene 25791): 0.588 | SPDEF log2FC (Gene 25803): -0.326 | TNFAIP8 log2FC (Gene 25816): 0.706 | PRDX5 log2FC (Gene 25824): -0.074 | BRMS1 log2FC (Gene 25855): -0.580 | SIN3A log2FC (Gene 25942): 0.788 | HIGD1A log2FC (Gene 25994): 0.198 | SERBP1 log2FC (Gene 26135): 0.313 | NOC2L log2FC (Gene 26155): -0.773 | TIAM2 log2FC (Gene 26230): 0.410 | AATF log2FC (Gene 26574): -0.362 | GREM1 log2FC (Gene 26585): -0.311 | CKAP2 log2FC (Gene 26586): 0.829 | CYFIP2 log2FC (Gene 26999): -0.154 | NGFRAP1 log2FC (Gene 27018): 0.134 | ANKRD1 log2FC (Gene 27063): 0.342 | GHITM log2FC (Gene 27069): 0.501 | BBC3 log2FC (Gene 27113): 2.148 | CIDEB log2FC (Gene 27141): -0.076 | GLS2 log2FC (Gene 27165): 0.175 | TNFRSF21 log2FC (Gene 27242): -1.178 | PDCD4 log2FC (Gene 27250): 1.281 | KLHL20 log2FC (Gene 27252): 0.174 | CECR2 log2FC (Gene 27443): -0.568 | DBNL log2FC (Gene 28988): -0.399 | HIPK2 log2FC (Gene 28996): -0.166 | SAP30BP log2FC (Gene 29115): -0.314 | LGALS13 log2FC (Gene 29124): -0.151 | CARD10 log2FC (Gene 29775): -0.324 | SENP1 log2FC (Gene 29843): 0.416 | TFPT log2FC (Gene 29844): -0.708 | PNMA3 log2FC (Gene 29944): 0.559 | UBQLN1 log2FC (Gene 29979): 0.311 | ERO1L log2FC (Gene 30001): 0.255 | SH3KBP1 log2FC (Gene 30011): 0.491 | KCNIP3 log2FC (Gene 30818): 0.159 | RRM2B log2FC (Gene 50484): 0.508 | G0S2 log2FC (Gene 50486): -0.063 | NOX4 log2FC (Gene 50507): -0.318 | CHST11 log2FC (Gene 50515): -0.798 | ARHGEF4 log2FC (Gene 50649): 0.114 | ARHGEF3 log2FC (Gene 50650): 0.584 | GLRX2 log2FC (Gene 51022): -0.287 | RPS27L log2FC (Gene 51065): 0.265 | APIP log2FC (Gene 51074): 0.142 | NDUFA13 log2FC (Gene 51079): -0.190 | GAL log2FC (Gene 51083): -0.531 | SH3GLB1 log2FC (Gene 51100): 0.592 | APH1A log2FC (Gene 51107): -0.202 | UTP11L log2FC (Gene 51118): -0.844 | IER3IP1 log2FC (Gene 51124): 0.463 | ANGPTL4 log2FC (Gene 51129): -0.967 | ING4 log2FC (Gene 51147): 1.465 | LEF1 log2FC (Gene 51176): -0.842 | BFAR log2FC (Gene 51283): 0.564 | PLAC8 log2FC (Gene 51316): -0.141 | TNFRSF12A log2FC (Gene 51330): -0.850 | ANGPT4 log2FC (Gene 51378): -0.106 | DDX41 log2FC (Gene 51428): -0.212 | GULP1 log2FC (Gene 51454): 1.616 | TRIAP1 log2FC (Gene 51499): -0.820 | ZC3HC1 log2FC (Gene 51530): 0.230 | PIAS4 log2FC (Gene 51588): -0.216 | PIGT log2FC (Gene 51604): 0.174 | TAF9B log2FC (Gene 51616): 0.427 | PTRH2 log2FC (Gene 51651): -0.336 | WWOX log2FC (Gene 51741): -0.809 | SIX4 log2FC (Gene 51804): 0.564 | IL20RA log2FC (Gene 53832): 0.097 | CYCS log2FC (Gene 54205): -0.446 | WNT4 log2FC (Gene 54361): -0.709 | DNAJC10 log2FC (Gene 54431): 0.727 | ZFAND6 log2FC (Gene 54469): 0.430 | ADAMTSL4 log2FC (Gene 54507): -0.301 | DDIT4 log2FC (Gene 54541): -0.893 | ING3 log2FC (Gene 54556): 0.777 | RRN3 log2FC (Gene 54700): -0.293 | AHI1 log2FC (Gene 54806): 0.585 | QRICH1 log2FC (Gene 54870): -0.061 | TMEM161A log2FC (Gene 54929): -0.567 | PHIP log2FC (Gene 55023): 1.243 | USP47 log2FC (Gene 55031): 0.762 | OXR1 log2FC (Gene 55074): 0.502 | UACA log2FC (Gene 55075): 0.817 | IFT57 log2FC (Gene 55081): 0.552 | XKR8 log2FC (Gene 55113): 0.287 | SHQ1 log2FC (Gene 55164): -0.250 | FAIM log2FC (Gene 55179): 0.209 | MAP1S log2FC (Gene 55201): -0.375 | ATAD3A log2FC (Gene 55210): -0.394 | STEAP3 log2FC (Gene 55240): -0.569 | RHOT1 log2FC (Gene 55288): 0.620 | RFK log2FC (Gene 55312): 0.519 | PARL log2FC (Gene 55486): -0.133 | TNFRSF19 log2FC (Gene 55504): -0.110 | CCAR1 log2FC (Gene 55749): 0.836 | PCID2 log2FC (Gene 55795): 0.322 | RNF130 log2FC (Gene 55819): 0.142 | EAF2 log2FC (Gene 55840): 0.438 | PSENEN log2FC (Gene 55851): -0.304 | BCAP29 log2FC (Gene 55973): 0.449 | TEX11 log2FC (Gene 56159): -0.066 | CTNNBL1 log2FC (Gene 56259): -0.141 | DIABLO log2FC (Gene 56616): -0.193 | ASAH2 log2FC (Gene 56624): -0.191 | TRIM39 log2FC (Gene 56658): -0.084 | BARHL1 log2FC (Gene 56751): -0.269 | FMN2 log2FC (Gene 56776): 0.105 | SPHK2 log2FC (Gene 56848): -0.628 | C8orf4 log2FC (Gene 56892): -0.080 | MEIS3 log2FC (Gene 56917): -0.061 | DUSP22 log2FC (Gene 56940): 0.419 | CIAPIN1 log2FC (Gene 57019): -0.388 | PCBP4 log2FC (Gene 57060): -0.519 | AVEN log2FC (Gene 57099): -0.627 | CAMK1D log2FC (Gene 57118): -0.141 | RTN4 log2FC (Gene 57142): 0.129 | PAK7 log2FC (Gene 57144): 0.396 | BIRC6 log2FC (Gene 57448): 0.155 | TAOK1 log2FC (Gene 57551): 0.386 | SEMA6A log2FC (Gene 57556): -0.108 | SH3RF1 log2FC (Gene 57630): -0.399 | USP28 log2FC (Gene 57646): 0.268 | GPAM log2FC (Gene 57678): 0.310 | CHD8 log2FC (Gene 57680): -0.199 | TRIB3 log2FC (Gene 57761): 0.343 | NGB log2FC (Gene 58157): -0.410 | RBM25 log2FC (Gene 58517): 0.406 | SAV1 log2FC (Gene 60485): 0.676 | PROK2 log2FC (Gene 60675): -0.050 | ELMO2 log2FC (Gene 63916): 0.581 | CIDEC log2FC (Gene 63924): 0.346 | FIGNL1 log2FC (Gene 63979): -0.206 | PERP log2FC (Gene 64065): 0.653 | MOAP1 log2FC (Gene 64112): 1.318 | RRAGC log2FC (Gene 64121): 1.860 | IFIH1 log2FC (Gene 64135): 0.885 | ZMAT3 log2FC (Gene 64393): -0.105 | ATG3 log2FC (Gene 64422): 0.283 | SUDS3 log2FC (Gene 64426): -0.126 | MICAL1 log2FC (Gene 64780): -0.454 | PLEKHG2 log2FC (Gene 64857): -0.832

From publication PMC4303209, “A novel phosphatidylinositol 3-kinase (PI3K) inhibitor directs a potent FOXO-dependent, p53-independent cell cycle arrest phenotype characterized by the differential induction of a subset of FOXO-regulated genes” (Breast Cancer Research : BCR, 2014)
